# Source: patent US9409884B2 (Rigel Pharmaceuticals, Inc., priority 2012, dated 2016)
# Target: AMPK
# Test: AMPK activation, enzyme-linked immunosorbent assay
# Format: biochemical
# Conditions: Table 13, compounds of Table 6
# Summary of the method: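 AMPK activation by test compounds was measured by enzyme-linked immunosorbent assay.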
row,SMILES,EC50
1,"COc1cc(CN2CCC(NC(=O)c3cc4cc(C(=O)N5CCN(Cc6ccc(S(C)(=O)=O)cc6)CC5)ccc4o3)CC2)ccc1F [Compound 6-98, N-(1-(4-fluoro-3-methoxybenzyl)piperidin-4-yl)-5-(4-(4-(methylsulfonyl)benzyl)piperazine-1-carbonyl) benzofiiran-2-carboxamide]",100 to 1000 nM
2,"COc1cccc(CN2CCC(NC(=O)c3cc4cc(C(=O)N5CCN(Cc6ccc(S(C)(=O)=O)cc6)CC5)ccc4o3)CC2)c1 [Compound 6-99, N-(1-(3-methoxybenzyl)piperidin-4-yl)-5-(4-(4-(methylsulfonyl)benzyl)piperazine-1-carbonyl) benzofuran-2-carboxamide]",1000 to 10000 nM
3,"CS(=O)(=O)c1ccc(CN2CCN(C(=O)c3ccc4oc(C(=O)NC5CCN(Cc6ccc(OC(F)F)cc6)CC5)cc4c3)CC2)cc1 [Compound 6-101, N-(1-(4-(difluoromethoxy)benzyl)piperidin-4-yl)-5-(4-(4-(methylsulfonyl)benzyl)piperazine-1-carbonyl) benzofuran-2-carboxamide]",100 to 1000 nM
4,"N#Cc1ccc(CN2CCC(NC(=O)c3cc4cc(C(=O)N5CCN(c6ccc(C(=O)C7CC7)cc6)CC5)ccc4o3)CC2)cc1 [Compound 6-109, N-(1-(4-cyanobenzyl)piperidin-4-yl)-5-(4-(4-(cyclopropanecarbonyl)phenyl)piperazine-1-carbonyl)benzofuran-2-carboxamide]",< 100 nM
5,"CN(C)C(=O)c1ccc(N2CCN(C(=O)c3ccc4oc(C(=O)NC5CCN(Cc6ccc(C#N)cc6)CC5)cc4c3)CC2)cc1 [Compound 6-110, N-(1-(4-cyanobenzyl)piperidin-4-yl)-5-(4-(4-(dimethylcarbamoyl)phenyl)piperazine-1-carbonyl) benzofuran-2-carboxamide]",100 to 1000 nM
6,"CS(=O)(=O)c1ccc(CN2CCN(C(=O)c3ccc4oc(C(=O)NC5CCN(Cc6ccc(C#N)cc6)CC5)cc4c3)CC2)cc1OC(F)(F)F [Compound 6-111, N-(1-(4-cyanobenzyl)piperidin-4-yl)-5-(4-(4-(methylsulfonyl)-3-(trifluoromethoxy)benzyl)piperazine-1-carbonyl) benzofuran-2-carboxamide]",100 to 1000 nM
7,"CS(=O)(=O)c1ccc(CN2CCN(C(=O)c3ccc4oc(C(=O)NC5CCN(Cc6ccc(C#N)cc6)CC5)cc4c3)CC2)cc1Cl [Compound 6-112, 5-(4-(3-chloro-4-(methylsulfonyl)benzyl)piperazine-1-carbonyl)-N-(1-(4-cyanobenzyl)piperidin-4-yl)benzofuran-2-carboxamide]",< 100 nM
8,"CS(=O)(=O)c1ccc(O[C@H]2CCN(C(=O)c3ccc4oc(C(=O)NC5CCN(Cc6ccc(C#N)cc6)CC5)cc4c3)C[C@@H]2F)cc1 [Compound 6-113, N-(1-(4-cyanobenzyl)piperidin-4-yl)-5-((3,4-trans)-3-fluoro-4-(4-(methylsulfonyl)phenoxy)piperidine-1-carbonyl) benzofuran-2-carboxamide]",< 100 nM
9,"COc1ccc(CN2CCC(NC(=O)c3cc4cc(C(=O)N5CC[C@H](Oc6ccc(S(C)(=O)=O)cc6)[C@@H](F)C5)ccc4o3)CC2)cc1 [Compound 6-114, 5-((3,4-trans)-3-fluoro-4-(4-(methylsulfonyl)phenoxy)piperidine-1-carbonyl)-N-(1-(4-methoxybenzyl)piperidin-4-yl) benzofuran-2-carboxamide]",< 100 nM
10,"CS(=O)(=O)c1ccc(O[C@H]2CCN(C(=O)c3ccc4oc(C(=O)NC5CCN(Cc6ccc(OC(F)(F)F)cc6)CC5)cc4c3)C[C@@H]2F)cc1 [Compound 6-115, 5-((3,4-trans)-3-fluoro-4-(4-(methylsulfonyl)phenoxy)piperidine-1-carbonyl)-N-(1-(4-(trifluoromethoxy)benzyl)piperidin-4-yl)benzofuran-2-carboxamide]",< 100 nM
11,"N#Cc1ccc(CN2CCC(NC(=O)c3cc4cc(C(=O)N5CCN(c6ccc(C(F)(F)F)cc6)CC5)ccc4o3)CC2)cc1 [Compound 6-116, N-(1-(4-cyanobenzyl)piperidin-4-yl)-5-(4-(4-(trifluoromethyl)phenyl)piperazine-1-carbonyl) benzofuran-2-carboxamide]",< 100 nM

# Results, then the compound that gave them:
row,EC50,SMILES
1,< 100 nM,"COc1ccc(CN2CCC(NC(=O)c3cc4cc(C(=O)N5CCN(Cc6ccc(-n7cccn7)cc6)CC5)ccc4o3)CC2)cc1 [Compound 6-96, 5-(4-(4-(1H-pyrazol-1-yl)benzyl)piperazine-1-carbonyl)-N-(1-(4-methoxybenzyl)piperidin-4-yl)benzofuran-2-carboxamide]"
2,< 100 nM,"O=C(NC1CCN(Cc2ccc(OC(F)(F)F)cc2)CC1)c1cc2cc(C(=O)N3CCN(Cc4ccc(-n5cccn5)cc4)CC3)ccc2o1 [Compound 6-97, 5-(4-(4-(1H-pyrazol-1-yl)benzyl)piperazine-1-carbonyl)-N-(1-(4-(trifluoromcthoxy)benzyl)piperidin-4-yl)benzofuran-2-carboxamide]"
3,< 100 nM,CS(=O)(=O)c1ccc(CN2CCN(C(=O)c3ccc4oc(C(=O)NC5CCN(Cc6ccc(C#N)cc6)CC5)cc4c3)CC2)cc1F [Compound 6-102]
4,< 100 nM,"Cc1cc(CN2CCN(C(=O)c3ccc4oc(C(=O)NC5CCN(Cc6ccc(C#N)cc6)CC5)cc4c3)CC2)ccc1S(C)(=O)=O [Compound 6-103, N-(1-(4-cyanobenzyl)piperidin-4-yl)-5-(4-(3-methyl-4-(methylsulfonyl)benzyl)piperazine-1-carbonyl) benzofuran-2-carboxamide]"
5,< 100 nM,"N#Cc1ccc(CN2CCC(NC(=O)c3cc4cc(C(=O)N5CCN(Cc6ccc(S(=O)(=O)C7CC7)cc6)CC5)ccc4o3)CC2)cc1 [Compound 6-104, N-(1-(4-cyanobenzyl)piperidin-4-yl)-5-(4-(4-(cyclopropylsulfonyl)benzyI)piperazine-1-carbonyl) benzofuran-2-carboxamide]"
6,< 100 nM,"CS(=O)(=O)c1ccc(CN2CCN(C(=O)c3ccc4oc(C(=O)NC5CCN(Cc6ccc(C#N)cc6)CC5)cc4c3)CC2)cc1C(F)(F)F [Compound 6-105, N-(1-(4-cyanobenzyl)piperidin-4-yl)-5-(4-(4-(methylsulfonyl)-3-(trifluoromethyl)benzyl)piperazine-1-carbonyl) benzofuran-2-carboxamide]"
7,< 100 nM,"COc1ccc(N2CCN(C(=O)c3ccc4oc(C(=O)NC5CCN(Cc6ccc(C#N)cc6)CC5)cc4c3)CC2)cc1 [Compound 6-106, N-(1-(4-cyanobenzyl)piperidin-4-yl)-5-(4-(4-methoxyphenyl)piperazine-1-carbonyl)benzofuran-2-carboxamide]"
8,< 100 nM,"N#Cc1ccc(CN2CCC(NC(=O)c3cc4cc(C(=O)N5CCN(c6ccc(C#N)cc6)CC5)ccc4o3)CC2)cc1 [Compound 6-107, N-(1-(4-cyanobenzyl)piperidin-4-yl)-5-(4-(4-cyanophenyl)piperazine-1-carbonyl)benzofuran-2-carboxamide]"
9,< 100 nM,"CC(C)S(=O)(=O)c1ccc(N2CCN(C(=O)c3ccc4oc(C(=O)NC5CCN(Cc6ccc(C#N)cc6)CC5)cc4c3)CC2)cc1 [Compound 6-108, N-(1-(4-cyanobenzyl)piperidin-4-yl)-5-(4-(4-(isopropylsulfonyl)phenyl)piperazine-1-carbonyl) benzofuran-2-carboxamide]"
